Experimental findings from patent US20260373094A1, “MICROSTRUCTURE CONTAINING WATER-SOLUBLE AND FAT-SOLUBLE IMMUNOMODULATOR” (IUCF-HYU (INDUSTRY-UNIVERSITY COOPERATION FOUNDATION …, priority 2022, published 2026) are described below.

One data set has as its system TGF-β. The data set can be described thus: Inhibition of TGF-β activity in melanoma cells (immunofluorescence, western blotting). Type of data set: cell-based. To be noted: SD208 1 μmol/L, TGF-β 5 ng/m, 24 hours, B16F10 melanoma cells. As to the method:
5×10^4 B16F10 melanoma cells per well of a cell culture plate were cultured in a 12-well plate using Dulbecco's Modified Eagle Medium (DMEM), and then treated with the immunoadjuvant SD208 (1 μmol/L) and the tumor marker TGF-β (5 ng/m) for 24 hours. Thereafter, cells were treated with an anti-α-tubulin Alexa 488 fluorescent antibody and 4′,6-diamidino-2-phenylindole (DAPI), and then imaged using the STELLARIS 8 STED confocal laser scanning microscope.
In addition, changes in the expression levels of proteins activated by TGF-β were confirmed by western blotting using anti-Psmad3, anti-smad3, anti-N-cadherin, and anti-E-cadherin antibodies.
For orientation: A western blot detects proteins with antibodies after separation by electrophoresis.

Data set [1] relates to B16F10 melanoma cells. As to the kind of experiment: Wound healing, 2D melanoma cell culture. The class given is cell-based. To be noted: SD208 1 μmol/L, TGF-β 5 ng/m, 24 hours, 2D culture. Here is the method:
For 2D cell culture, 8×10^4 B16F10 melanoma cells were cultured in a 12-well plate using DMEM until the wells were full. Thereafter, the cells filling the wells were scratched in a cross shape to create a wound, and treated with the immunoadjuvant SD208 (1 μmol/L) and the tumor marker TGF-β (5 ng/m) for 24 hours, and the wound healing rate over time was imaged using a microscope.

The test system of data set [2] is B16F10 melanoma cells. The data set can be described thus: Melanoma cell spheroid volume, 3D cell culture. Type of data set: cell-based. Particulars: SD208 1 μmol/L, TGF-β 5 ng/m, eight days, 3D culture. Here is the method: For 3D cell culture, 1,000 B16F10 melanoma cells per 100 μl of DMEM were placed in a PCR tube and collected at the bottom by centrifugation. After culturing the cells in the PCR tubes for three days, they were transferred to a 96-well plate and treated with DMEM containing the immunoadjuvant SD208 (1 μmol/L) and the tumor marker TGF-β (5 ng/m). The DMEM was exchanged with fresh DMEM every three days, and the changes in the size of melanoma cell spheroids were measured for eight days using a microscope.

For the next data set, the system named is PD-L1. The data set can be described thus: Inhibition of PD-L1 protein expression in melanoma cells (confocal, flow cytometry). Type of data set: cell-based. To be noted: SD208 1 μmol/L, TGF-β 5 ng/m, 24 hours, B16F10 melanoma cells. Here is the method: 5×10^4 B16F10 melanoma cells per well of a cell culture plate were cultured in a 12-well plate using DMEM, and then treated with the immunoadjuvant SD208 (1 μmol/L) and the tumor marker TGF-β (5 ng/m) for 24 hours.
Thereafter, the cells were imaged using a STELLARIS 8 STED confocal laser scanning microscope after treatment with an anti-PD-L1 Alexa 488 fluorescent antibody. In addition, the fluorescence expression level of the PD-L1 protein was confirmed through flow cytometry.
(In general: Flow cytometry measures light scatter and fluorescence of single cells or particles in a stream.)

The nature of data set [3]: Confocal imaging of fluorescent substances in composite solvent microstructure. The class given is physicochemical. To be noted: PBS:DMSO 9:1, 20% (w/v) hyaluronic acid. As to the method:
The fluorescein isothiocyanate (FITC) fluorescent substance which is soluble only in a water-soluble solvent, and the Cy5.5 fluorescent substance, which is soluble only in a fat-soluble solvent, were added to a composite solvent containing a mixture of a water-soluble solvent (PBS) and a fat-soluble solvent (DMSO) in a ratio of 9:1 (10% (v/v) fat-soluble) and 20% (w/v) hyaluronic acid was further dissolved, and microstructures were fabricated using the method of Manufacturing Example 1. Thereafter, the composite solvent fluorescence microstructures were imaged using the STELLARIS 8 STED confocal laser scanning microscope.

`Fc1ccc(Cl)cc1-c1nc(Nc2ccncc2)c2nccnc2n1` [SD208]: the “effect of TGF-β” value in the data set with TGF-β is “inhibited the effect of TGF-β”. Moreover, the “expression of proteins activated by TGF-β” value in the data set with TGF-β (Psmad3, smad3, N-cadherin, E-cadherin) is “suppressing the expression of proteins activated by TGF-β”. The “wound healing effect by TGF-β” value in the data set on B16F10 melanoma cells [1] is “inhibited”. In addition, the “melanoma cell spheroid volume increase effect caused by TGF-β” value with B16F10 melanoma cells [2] is given as “inhibited”. For the same compound, the “fluorescence value of PD-L1 (PD-L1 expression)” value in the data set on PD-L1 is “decreased”.

In the case of Cy5.5, the “distribution within the microstructure” value in data set [3] was “evenly distributed”.
